In test [1] the test system is multiple myeloma cell line OPM-2. Description: Multiple myeloma cellular efficacy (PrestoBlue cell proliferation/survival assay). The format is cell-based. The conditions noted are these: Homo sapiens, 96 h; OPM-2 cells, 4 days treatment, PrestoBlue signal relative to vehicle; read-out: Assay 1. The method, then:
Multiple Myeloma Cellular Efficacy:
10000 OPM-2 (ACC50; DSMZ) were plated into wells of a 384 well plate (Greiner 781090). Cells were treated for 4 days with a dose range of compound or vehicle. At the end of the experiment cells were stained directly with PrestoBlue (ThermoFisher Scientific; A13262) for 2 hours at 37° C. in a humidified incubator according to manufactor's instruction. To assess the relative cell number the PrestoBlue signal was measured using either a TecanM1000Pro reader or a Tecan Sparks reader following the manufactor's instructions. Background (no cells) values were subtracted and set in relation to the vehicle control. To assess the EC50 of each compound the relative fluorescence value was plotted against the compound concentration after log transformation. Data were fitted in a nonlinear manner with a variable slope (four parameters) using graphpad prism software. Cellular efficacy of compounds was evaluated in the multiple myeloma cell line OPM-2 using the cell proliferation/survival assay PrestoBlue. EC50 values are classified as indicated below.

The target of the next test is T1, CBP bromodomain (Homo sapiens, UniProt Q92793).
T1 construct: purchased Cayman chemicals 600850
The experiment in a line: CBP bromodomain binding assay (TR-FRET). The conditions noted are these: TR-FRET (Cayman kit 600850), 1 hour incubation at room temperature; read-out: Assay 2. Here is the method:
CBP Bromodomain Binding Assay (TR-FRET)
Compounds solutions of 10 mM in DMSO were pre-diluted in DSMO to 25× stock solutions in DMSO. These were then diluted down to 4× in assay buffer. A dilution series in assay buffer was performed keeping the DMSO concentration stable. 5 μl compound in assay buffer was transferred into the assay plate (provided by assay kit) and the TR-FRET assay Cayman chemicals; 600850) was performed using the provider's instructions. After 1 hour incubation at room temperature in the darks, assay plates were read in a Tecan M1000 plate reader or a Tecan Sparks reader using the TR-FRET mode (top read; excitation 340 nm bandwidth 20 nM; emission 620 nm bandwidth 7 nM; gain optimal determined for the first well, number of flashes: 5; flash frequency 100 Hz; integration time: 500 μs, lag time: 100 μs, room temperature). The TR-FRET ratio was calculated by dividing 670 nm emission by 620 nm emission. Values were log transformed and non-linear regression with variable slope (4 parameters) was used to fit values to a dose-response curve to evaluate EC50 values.
(In general: TR-FRET usually uses a lanthanide donor and a delayed reading to cut background.)

The results in this text go back to patent US12595258B2, “Heterocyclic derivatives, pharmaceutical compositions and their use in the treatment or amelioration of cancer” (TOLREMO THERAPEUTICS AG, priority 2022, dated 2026).

Each structure is given as a SMILES string.

T1 sequence (Q92793 1085-1192 limits assumed): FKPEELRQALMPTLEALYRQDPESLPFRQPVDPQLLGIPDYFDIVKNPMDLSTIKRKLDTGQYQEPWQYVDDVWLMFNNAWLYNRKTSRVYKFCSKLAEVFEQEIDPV

`CC(=O)N1C[C@H](c2nc(Nc3cc(F)cc(-c4cn(C)cn4)c3)cc(-c3cnccn3)n2)CC[C@@H]1C` [Compound 001, 1-((2S,5R)-5-(4-((3-fluoro-5-(1-methyl-1H-imidazol-4-yl)phenyl)amino)-6-(pyrazin-2-yl)pyrimidin-2-yl)-2-methylpiperidin-1-yl)ethan-1-one]: the EC50 in test [1] worked out at 1 nM; on CBP bromodomain it was 7 nM.

In the case of `CC(=O)N1C[C@H](c2nc(Nc3cc(F)cc(-c4cn[nH]c4)c3)cc(-c3cnccn3)n2)CC[C@@H]1C` [Compound 002, 1-((2S,5R)-5-(4-((3-fluoro-5-(1H-pyrazol-4-yl)phenyl)amino)-6-(pyrazin-2-yl)pyrimidin-2-yl)-2-methylpiperidin-1-yl)ethan-1-one], the EC50 in test [1] was 25 nM; on CBP bromodomain, 23 nM.

`CC(=O)N1C[C@H](c2nc(Nc3cccc(-c4cn(C)nc4C)c3)cc(-c3cnccn3)n2)CC[C@@H]1C` [Compound 004]: the EC50 at CBP bromodomain is 128 nM.

For `CC(=O)N1C[C@H](c2nc(Nc3cccc(-c4cnn(C)c4C)c3)cc(-c3cnccn3)n2)CC[C@@H]1C` [Compound 005], the EC50 in test [1] turned out to be 193 nM.

For `CC(=O)N1C[C@H](c2nc(Nc3cc(F)cc(-c4nnc(C)o4)c3)cc(-c3cnccn3)n2)CC[C@@H]1C` [Compound 006, 1-((2S,5R)-5-(4-((3-fluoro-5-(5-methyl-1,3,4-oxadiazol-2-yl)phenyl)amino)-6-(pyrazin-2-yl)pyrimidin-2-yl)-2-methylpiperidin-1-yl)ethan-1-one], the EC50 in test [1] is 6 nM; at CBP bromodomain it was 3 nM.

In the case of `CC(=O)N1C[C@H](c2nc(Nc3cccc(-c4cn(C(C)C)nn4)c3)cc(-c3cnccn3)n2)CC[C@@H]1C` [Compound 007, 1-((2S,5R)-5-(4-((3-(1-isopropyl-1H-1,2,3-triazol-4-yl)phenyl)amino)-6-(pyrazin-2-yl)pyrimidin-2-yl)-2-methylpiperidin-1-yl)ethan-1-one], in test [1], the EC50 worked out at 50 nM.

Consider `CC(=O)N1C[C@H](c2nc(Nc3cccc(-c4cn(C5COC5)nn4)c3)cc(-c3cnccn3)n2)CC[C@@H]1C` [Compound 008], for which the EC50 in test [1] was found to be 28 nM.

Consider `CC(=O)N1C[C@H](c2nc(Nc3cc(F)cc(-c4c[nH]nn4)c3)cc(-c3cnccn3)n2)CC[C@@H]1C` [Compound 009, 1-((2S,5R)-5-(4-((3-fluoro-5-(1H-1,2,3-triazol-4-yl)phenyl)amino)-6-(pyrazin-2-yl)pyrimidin-2-yl)-2-methylpiperidin-1-yl)ethan-1-one], for which the EC50 in test [1] amounted to 37 nM.

Take `CC(=O)N1C[C@H](c2nc(Nc3cc(Cl)cc(-c4c[nH]nn4)c3)cc(-c3cnccn3)n2)CC[C@@H]1C` [Compound 010, 1-((2S,5R)-5-(4-((3-chloro-5-(1H-1,2,3-triazol-4-yl)phenyl)amino)-6-(pyrazin-2-yl)pyrimidin-2-yl)-2-methylpiperidin-1-yl)ethan-1-one]: the EC50 in test [1] turned out to be 45 nM.

For the compound `CCn1cc(-c2cccc(Nc3cc(-c4cnccn4)nc([C@@H]4CC[C@H](C)N(C(C)=O)C4)n3)c2)nn1` [Compound 011, 1-((2S,5R)-5-(4-((3-(1-ethyl-1H-1,2,3-triazol-4-yl)phenyl)amino)-6-(pyrazin-2-yl)pyrimidin-2-yl)-2-methylpiperidin-1-yl)ethan-1-one], the EC50 in test [1] was found to be 6 nM.

As for `CC(=O)N1C[C@H](c2nc(Nc3ccc(C)c(-c4cn(C)nn4)c3)cc(-c3cnccn3)n2)CC[C@@H]1C` [Compound 012, 1-((2S,5R)-2-methyl-5-(4-((4-methyl-3-(1-methyl-1H-1,2,3-triazol-4-yl)phenyl)amino)-6-(pyrazin-2-yl)pyrimidin-2-yl)piperidin-1-yl)ethan-1-one], in test [1], the EC50 stood at 261 nM.

With `CC(=O)N1C[C@H](c2nc(Nc3cccc(-c4cn(C)nn4)c3C)cc(-c3cnccn3)n2)CC[C@@H]1C` [Compound 013], the EC50 in test [1] is 32 nM.

Consider `CC(=O)N1C[C@H](c2nc(Nc3cc(C)cc(-c4cn(C)nn4)c3)cc(-c3cnccn3)n2)CC[C@@H]1C` [Compound 014, 1-((2S,5R)-2-methyl-5-(4-((3-methyl-5-(1-methyl-1H-1,2,3-triazol-4-yl)phenyl)amino)-6-(pyrazin-2-yl)pyrimidin-2-yl)piperidin-1-yl)ethan-1-one], for which the EC50 in test [1] was 5 nM; on CBP bromodomain, 7 nM.

In the case of `CC(=O)N1C[C@H](c2nc(Nc3cccc(-c4nnn(C)c4C)c3)cc(-c3cnccn3)n2)CC[C@@H]1C` [Compound 015, 1-((2S,5R)-5-(4-((3-(1,5-dimethyl-1H-1,2,3-triazol-4-yl)phenyl)amino)-6-(pyrazin-2-yl)pyrimidin-2-yl)-2-methylpiperidin-1-yl)ethan-1-one], the EC50 in test [1] worked out at 109 nM.

Regarding `CC(=O)N1C[C@H](c2nc(Nc3cccc(-c4nn(C)nc4C)c3)cc(-c3cnccn3)n2)CC[C@@H]1C` [Compound 016, 1-((2S,5R)-5-(4-((3-(2,5-dimethyl-2H-1,2,3-triazol-4-yl)phenyl)amino)-6-(pyrazin-2-yl)pyrimidin-2-yl)-2-methylpiperidin-1-yl)ethan-1-one], the EC50 in test [1] came to 142 nM.

`CC(=O)N1C[C@H](c2nc(Nc3cccc(-c4cnnn4C)c3)cc(-c3cnccn3)n2)CC[C@@H]1C` [Compound 017, 1-((2S,5R)-2-methyl-5-(4-((3-(1-methyl-1H-1,2,3-triazol-5-yl)phenyl)amino)-6-(pyrazin-2-yl)pyrimidin-2-yl)piperidin-1-yl)ethan-1-one]: in test [1], the EC50 worked out at 458 nM.

For the compound `CC(=O)N1C[C@H](c2nc(Nc3ccc(F)c(-c4cn(C)nn4)c3)cc(-c3cnccn3)n2)CC[C@@H]1C` [Compound 018, 1-((2S,5R)-5-(4-((4-fluoro-3-(1-methyl-1H-1,2,3-triazol-4-yl)phenyl)amino)-6-(pyrazin-2-yl)pyrimidin-2-yl)-2-methylpiperidin-1-yl)ethan-1-one], the EC50 in test [1] was found to be 63 nM; on CBP bromodomain it was 22 nM.

`CC(=O)N1C[C@H](c2nc(Nc3cccc(-c4cn(C)nn4)c3F)cc(-c3cnccn3)n2)CC[C@@H]1C` [Compound 019, 1-((2S,5R)-5-(4-((2-fluoro-3-(1-methyl-1H-1,2,3-triazol-4-yl)phenyl)amino)-6-(pyrazin-2-yl)pyrimidin-2-yl)-2-methylpiperidin-1-yl)ethan-1-one]: the EC50 amounted to 1 nM in test [1] and 6 nM on CBP bromodomain.

For `CC(=O)N1C[C@H](c2nc(Nc3cc(-c4cn(C)nn4)ccc3F)cc(-c3cnccn3)n2)CC[C@@H]1C` [Compound 020], the EC50 in test [1] stood at 864 nM.

As for `CC(=O)N1C[C@H](c2nc(Nc3cc(Cl)cc(-c4cn(C)nn4)c3)cc(-c3cnccn3)n2)CC[C@@H]1C` [Compound 021, 1-((2S,5R)-5-(4-((3-chloro-5-(1-methyl-1H-1,2,3-triazol-4-yl)phenyl)amino)-6-(pyrazin-2-yl)pyrimidin-2-yl)-2-methylpiperidin-1-yl)ethan-1-one], the EC50 in test [1] came to 5 nM.

For the compound `CC(=O)N1C[C@H](c2nc(Nc3cc(F)cc(-c4cn(C5COC5)nn4)c3)cc(-c3cnccn3)n2)CC[C@@H]1C` [Compound 022, 1-((2S,5R)-5-(4-((3-fluoro-5-(1-(oxetan-3-yl)-1H-1,2,3-triazol-4-yl)phenyl)amino)-6-(pyrazin-2-yl)pyrimidin-2-yl)-2-methylpiperidin-1-yl)ethan-1-one], the EC50 in test [1] turned out to be 13 nM.

Consider `CC(=O)N1C[C@H](c2nc(Nc3cccc(-c4cn(C5COC5)nn4)c3F)cc(-c3cnccn3)n2)CC[C@@H]1C` [Compound 023], for which the results for the EC50 (in test [1]; on CBP bromodomain) were 7 nM and 65 nM, respectively.
